Assay results published in patent US20220324835A1 (Nurix Therapeutics, Inc., priority 2018, published 2022).

Legend:
Assay type in all cases: cell-based
anergic human T-cells = assay: Anergic T-cell activation assessed by IFNγ secretion (ionomycin-induced anergy); conditions: anergic T-cells re-challenged with anti-CD3 and anti-CD28 for 24 hours, read-out: IFNγ Fold change from baseline
From the text: Peripheral blood mononuclear cells (PBMC) were obtained either: 1) by using Ficoll-Paque™ (GE Healthcare) for separation of peripheral blood hematopoietic cells from buffy coats of healthy human donors; or 2) directly from LeukoPak donations. Total human primary T-cells were isolated from the PBMCs utilizing negative selection with commercial kits following the manufacturer's protocol (Miltenyi Catalog #130-096-535 (i.e., cocktail of antibodies against surface markers CD14, CD15, CD16, CD19, CD34, CD36, CD56, CD123 and CD235a were incubated with the PBMCs before passing the samples by magnetic beads for removal of cells expressing those surface markers) or StemCells Catalog #17951) to yield >95% CD3+ cells assessed by flow cytometry. The cells were activated with immobilized anti-CD3 antibody (OKT3) and soluble anti-CD28 antibody (28.2) for two days at which time they are washed and allowed to rest for three days in the absence of stimulation. They were then treated with ionomycin (Sigma) for 18-24 hours to induce anergy. Following two washes to remove the ionomycin from the samples, Cbl-b inhibitor compounds were added to the cells at the indicated concentrations (e.g. 10, 1.11 and 0.37 μM) and incubated for 1 hour. The cells were then re-challenged with anti-CD3 antibody and anti-CD28 antibody for 24 hours at which point cell free supernatants were collected and assessed for cytokines (e.g., IFNγ) by ELISA (R&D Systems or Peprotech) or Luminex multiplex kits (Procarta Life Technologies) following manufacturer's protocols.
Cbl-b inhibitors were tested to determine their ability to induce or enhance secretion of cytokines from anergic T-cells (e.g. IFNγ), which is indicative of decreased T-cell tolerance.
Readouts were reported as fold change over baseline. Baseline for this study was the measurement obtained from anergic human T-cells stimulated with immobilized anti-CD3 and soluble anti-CD28, wherein the T-cells were not incubated with a Cbl-b inhibitor (Table 7). For IFNγ changes greater than 2.5-fold over baseline were considered a positive response (Table 7). Compounds were ranked into bins according to their readout as follows for IFNγ: A indicates ≤2.50, B indicates 2.51-4.00 and C indicates >4.01.

[1] = test system: human T-cells with allogenic immature dendritic cells; assay: Allogenic mixed lymphocyte reaction (MLR), T-cell proliferation; conditions: 120 h, 5 days, baseline T-cells without Cbl-b inhibitor, read-out: Proliferation, fold change over baseline
Summary of the method: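 CFSE-labelled primary human T-cells, preincubated with Cbl-b inhibitor, stimulated by allogenic immature dendritic cells derived from monocytes with GM-CSF (30 ng/mL) and IL-4 (20 ng/mL) over 7 days. Proliferation by flow cytometry, expressed as fold over inhibitor-free baseline; >2-fold counted positive.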

primary human B cells = assay: B cell activation assay (CD69 on anti-IgM stimulated B cells); conditions: AUC of dose response curve (10 μM to 1 nM) of CD69 MFI normalized to DMSO control
Summary of the method: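 Negatively selected PBMC-derived B cells (>95% CD20+) treated with Cbl-b inhibitors from 10 μM to 1 nM (DMSO <0.5%) and stimulated with anti-IgM for 20 h at 37° C. CD69 MFI on CD20+ IgD+ cells by flow cytometry; dose-response AUC normalized to DMSO plus 2.5 μg/mL anti-IgM-F(ab′)2, binned A-D.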

T-cell [2] = assay: IL-2 secretion from T-cells stimulated with anti-CD3 antibody alone (Biological Example 2); conditions: primary human total T-cells, read-out: IL-2 secretion, Anti-CD3 stimulation, fold change over baseline; for fold induction at 1 µM: 1 μM compound; for fold induction at 8 µM: 8 μM compound
T-cell [3] = assay: CD25 cell surface staining on T-cells stimulated with anti-CD3 antibody alone (Biological Example 2); conditions: primary human total T-cells, baseline = anti-CD3/anti-CD28 stimulated cells without inhibitor, read-out: CD25 staining, Anti-CD3 stimulation, fold change over baseline; for fold induction at 1 µM: 1 μM compound; for fold induction at 8 µM: 8 μM compound

SMILES: C[C@H](Sc1nncn1C)c1cccc(NC(=O)c2cc(C(=O)N3CC[C@H](O)C3)ccn2)c1 [Compound 140, 4-[[(3S)-3-hydroxypyrrolidin-1-yl]carbonyl]-N-[3-[(1S)-1-[(4-methyl-4H-1,2,4-triazol-3-yl)sulfanyl]ethyl]phenyl]pyridine-2-carboxamide]
- fold induction at 0.37 µM (anergic human T-cells): ≤ 2.5
- fold induction at 1.11 µM (anergic human T-cells): ≤ 2.5
- fold induction at 10 µM (anergic human T-cells): 2.51 to 4
- fold induction at 3 µM [1]: < 2
- fold induction at 10 µM [1]: < 2
- CD69 MFI AUC (primary human B cells): A (A indicates ≤0.5)

SMILES: C[C@H](Cc1nncn1C)c1cccc(NC(=O)c2cccc(CCO)n2)c1 [Compound 202, 6-(2-hydroxyethyl)-N-[3-[(2R)-1-(4-methyl-4H-1,2,4-triazol-3-yl)propan-2-yl]phenyl]pyridine-2-carboxamide]
- fold induction at 0.37 µM (anergic human T-cells): ≤ 2.5
- fold induction at 1.11 µM (anergic human T-cells): ≤ 2.5
- fold induction at 10 µM (anergic human T-cells): 2.51 to 4
- fold induction at 3 µM [1]: < 2
- fold induction at 10 µM [1]: < 2
- CD69 MFI AUC (primary human B cells): C (C indicates 1.01-1.50)

SMILES: C[C@H](Cc1nncn1C)c1cccc(N2Cc3c(ccnc3C3CC3)C2=O)c1 [Compound 257, 4-cyclopropyl-2-[3-[(1R)-1-methyl-2-(4-methyl-1,2,4-triazol-3-yl)ethyl]phenyl]-3H-pyrrolo[3,4-c]pyridin-1-one]
- fold induction at 0.37 µM (anergic human T-cells): ≤ 2.5
- fold induction at 1.11 µM (anergic human T-cells): ≤ 2.5
- fold induction at 10 µM (anergic human T-cells): 2.51 to 4
- fold induction at 3 µM [1]: < 2
- fold induction at 10 µM [1]: < 2
- CD69 MFI AUC (primary human B cells): B (B indicates 0.5-1.00)

SMILES: Cn1cnnc1[C@@H]1C[C@@H]1c1cccc(N2Cc3c(cccc3C(F)(F)F)C2=O)c1 [Compound 282, 2-(3-((1S,2R)-2-(4-methyl-4H-1,2,4-triazol-3-yl)cyclopropyl)phenyl)-4-(trifluoromethyl)isoindolin-1-one]
- fold induction at 0.37 µM (anergic human T-cells): ≤ 2.5
- fold induction at 1.11 µM (anergic human T-cells): ≤ 2.5
- fold induction at 10 µM (anergic human T-cells): ≤ 2.5
- fold induction at 3 µM [1]: < 2
- fold induction at 10 µM [1]: < 2
- CD69 MFI AUC (primary human B cells): B (B indicates 0.5-1.00)

SMILES: C[C@H](Cc1nncn1C)c1ccnc(NC(=O)c2cccc(C(F)(F)F)n2)c1 [Compound 302, (R)-N-(4-(1-(4-methyl-4H-1,2,4-triazol-3-yl)propan-2-yl)pyridin-2-yl)-6-(trifluoromethyl)picolinamide]
- fold induction at 0.37 µM (anergic human T-cells): ≤ 2.5
- fold induction at 1.11 µM (anergic human T-cells): ≤ 2.5
- fold induction at 10 µM (anergic human T-cells): ≤ 2.5
- fold induction at 3 µM [1]: < 2
- fold induction at 10 µM [1]: < 2
- CD69 MFI AUC (primary human B cells): B (B indicates 0.5-1.00)

SMILES: C[C@H](Cc1nncn1C)c1cccc(NC(=O)c2nc(C(F)(F)F)c[nH]2)c1 [Compound 326, (R)-N-(3-(1-(4-methyl-4H-1,2,4-triazol-3-yl)propan-2-yl)phenyl)-4-(trifluoromethyl)-1H-imidazole-2-carboxamide]
- fold induction at 0.37 µM (anergic human T-cells): ≤ 2.5
- fold induction at 1.11 µM (anergic human T-cells): ≤ 2.5
- fold induction at 10 µM (anergic human T-cells): 2.51 to 4
- fold induction at 3 µM [1]: < 2
- fold induction at 10 µM [1]: < 2
- CD69 MFI AUC (primary human B cells): A (A indicates ≤0.5)

SMILES: Cn1cnnc1[C@@H]1C[C@@H]1c1cccc(N2Cc3c(ccnc3C(F)(F)F)C2=O)c1 [Compound 369, 2-{3-[(1S,2R)-2-(4-methyl-4H-1,2,4-triazol-3-yl)cyclopropyl]phenyl}-4-(trifluoromethyl)-1H,2H,3H-pyrrolo[3,4-c]pyridin-1-one]
- fold induction at 0.37 µM (anergic human T-cells): ≤ 2.5
- fold induction at 1.11 µM (anergic human T-cells): ≤ 2.5
- fold induction at 10 µM (anergic human T-cells): 2.51 to 4
- fold induction at 3 µM [1]: < 2
- fold induction at 10 µM [1]: < 2
- fold induction at 1 µM (T-cell [2]): 0.051 to 0.1
- fold induction at 8 µM (T-cell [2]): 0.101 to 0.15
- fold induction at 1 µM (T-cell [3]): 0.601 to 0.8
- fold induction at 8 µM (T-cell [3]): 0.801 to 1
- CD69 MFI AUC (primary human B cells): C (C indicates 1.01-1.50)

SMILES: Cc1cc2c(c(C3CC3)n1)CN(c1cccc([C@H](C)Cc3nncn3C)c1)C2=O [Compound 372, 4-cyclopropyl-6-methyl-2-{3-[(2R)-1-(4-methyl-4H-1,2,4-triazol-3-yl)propan-2-yl]phenyl}-1H,2H,3H-pyrrolo[3,4-c]pyridin-1-one]
- fold induction at 0.37 µM (anergic human T-cells): ≤ 2.5
- fold induction at 1.11 µM (anergic human T-cells): ≤ 2.5
- fold induction at 10 µM (anergic human T-cells): 2.51 to 4
- fold induction at 3 µM [1]: < 2
- fold induction at 10 µM [1]: < 2
- fold induction at 1 µM (T-cell [2]): 0.051 to 0.1
- fold induction at 8 µM (T-cell [2]): 0.101 to 0.15
- fold induction at 1 µM (T-cell [3]): 0.601 to 0.8
- fold induction at 8 µM (T-cell [3]): 0.801 to 1
- CD69 MFI AUC (primary human B cells): A (A indicates ≤0.5)

SMILES: CNCc1ccc(C(=O)Nc2cccc([C@H](C)Cc3nncn3C)c2)nc1C1CC1 [Compound 376, (R)-6-cyclopropyl-N-(3-(1-(4-methyl-4H-1,2,4-triazol-3-yl)propan-2-yl)phenyl)-5-((methylamino)methyl)picolinamide]
- fold induction at 0.37 µM (anergic human T-cells): ≤ 2.5
- fold induction at 1.11 µM (anergic human T-cells): ≤ 2.5
- fold induction at 10 µM (anergic human T-cells): > 4.01
- fold induction at 3 µM [1]: < 2
- fold induction at 10 µM [1]: < 2
- fold induction at 1 µM (T-cell [2]): 0.101 to 0.15
- fold induction at 8 µM (T-cell [2]): > 0.201
- fold induction at 1 µM (T-cell [3]): 0.801 to 1
- fold induction at 8 µM (T-cell [3]): > 1
- CD69 MFI AUC (primary human B cells): B (B indicates 0.5-1.00)
